The target of this experiment is T1, human RORγ-LBD (Homo sapiens, UniProt P51449).
T1 construct: made in house; host or cells: E. coli (BL-21)
T1 sequence (P51449 262-518): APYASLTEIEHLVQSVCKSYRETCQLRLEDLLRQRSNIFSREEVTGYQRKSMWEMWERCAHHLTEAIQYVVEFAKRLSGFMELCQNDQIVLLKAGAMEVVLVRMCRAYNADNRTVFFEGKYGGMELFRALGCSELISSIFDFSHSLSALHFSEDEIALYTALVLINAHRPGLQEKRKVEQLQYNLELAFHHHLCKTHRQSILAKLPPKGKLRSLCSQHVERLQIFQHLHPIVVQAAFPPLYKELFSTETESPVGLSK
Nature of the experiment: ROR gamma coactivator peptide recruitment Alphascreen assay (RORγ-LBD binding to GRIP1 coactivator peptide). The class given is biochemical. The settings on record: 5 nM human RORγ-LBD, 30 nM 7-β-hydroxycholesterol, 50 nM biotinylated GRIP1 coactivator peptide, overnight incubation at room temperature; read-out: result (pIC50, RORγ coactivator peptide recruitment Alphascreen assay) (converted). The method in brief: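 His/Flag-tagged human RORγ-LBD (aa 262-518, E. coli-expressed, 5 nM) with agonist 7-β-hydroxycholesterol (30 nM) and biotinylated GRIP1 LXXLL peptide (50 nM) in HEPES pH 7.4 buffer, 2.5% DMSO. Compound 1-in-2 dilutions; Alphascreen bead signal read after overnight incubation at room temperature; pIC50 calculated.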

`C[C@]1(C(=O)O)CC[C@H](n2ncc(C(=O)N(CC(=O)c3c(Cl)cncc3Cl)CC3(F)CC4(CC4)C3)c2C(F)(F)F)CC1` [Example 712, trans-4-(4-((2-(3,5-dichloro-4-pyridinyl)-2-oxoethyl)((5-fluorospiro[2.3]hex-5-yl)methyl)carbamoyl)-5-(trifluoromethyl)-1H-pyrazol-1-yl)-1-methylcyclohexanecarboxylic acid]: the IC50 was 12.9 nM.

On to `C[C@]1(C(=O)O)CC[C@H](n2ncc(C(=O)N(CC(=O)c3c(Cl)cccc3Cl)CC3(F)CC4(CC4)C3)c2C(F)(F)F)CC1` [Example 713, (1r,4r)-4-(4-((2-(2,6-dichlorophenyl)-2-oxoethyl)((5-fluorospiro[2.3]hexan-5-yl)methyl)carbamoyl)-5-(trifluoromethyl)-1H-pyrazol-1-yl)-1-methylcyclohexanecarboxylic acid], for which the IC50 was 4.07 nM.

Turning to `Cc1cc(Cl)c(C(=O)CN(C(=O)c2cnn([C@H]3CC[C@](C)(C(=O)O)CC3)c2C(F)(F)F)[C@H]2C[C@@H]3[C@H](C2)C3(C)C)c(Cl)n1` [Example 714, trans-4-(4-((2-(2,4-dichloro-6-methyl-3-pyridinyl)-2-oxoethyl)((1R,3r,5S)-6,6-dimethylbicyclo[3.1.0]hex-3-yl)carbamoyl)-5-(trifluoromethyl)-1H-pyrazol-1-yl)-1-methylcyclohexanecarboxylic acid], the IC50 was 3.55 nM.

In the case of `Cc1ncc(Cl)c(C(=O)CN(CC(C)(C)C)C(=O)c2cnn([C@H]3CC[C@](C)(C(=O)O)CC3)c2C(F)(F)F)c1Cl` [Example 715, trans-4-(4-((2-(3,5-dichloro-2-methyl-4-pyridinyl)-2-oxoethyl)(2,2-dimethylpropyl)carbamoyl)-5-(trifluoromethyl)-1H-pyrazol-1-yl)-1-methylcyclohexanecarboxylic acid], the IC50 is 10.5 nM. Regarding `CC1(CN(CC(=O)c2c(Cl)cc(F)cc2Cl)C(=O)c2cnn([C@H]3CC[C@@](C)(C(=O)O)CC3)c2C(F)(F)F)CC1` [Example 716, trans-4-(4-((2-(2,6-dichloro-4-fluorophenyl)-2-oxoethyl)((1-methylcyclopropyl)methyl)carbamoyl)-5-(trifluoromethyl)-1H-pyrazol-1-yl)-1-methylcyclohexanecarboxylic acid], the IC50 was 2.69 nM. `Cc1cc(Cl)c(C(=O)CN(CC2(C)CC2)C(=O)c2cnn([C@H]3CC[C@@](C)(C(=O)O)CC3)c2C(F)(F)F)c(Cl)c1` [Example 717]: the IC50 was 2.09 nM. For the compound `Cc1cc(Cl)c(C(=O)CN(CC2CCCC2)C(=O)c2cnn([C@H]3CC[C@@](C)(C(=O)O)CC3)c2C(F)(F)F)c(Cl)c1` [Example 718, trans-4-(4-((cyclopentylmethyl)(2-(2,6-dichloro-4-methylphenyl)-2-oxoethyl)carbamoyl)-5-(trifluoromethyl)-1H-pyrazol-1-yl)-1-methylcyclohexanecarboxylic acid], the IC50 was 1.74 nM.

Turning to `CC(C)(C)CN(CC(=O)c1c(Cl)cncc1Cl)C(=O)c1cnn([C@H]2CC[C@H](CC(=O)O)CC2)c1C(F)(F)F` [Example 719, (trans-4-(4-((2-(3,5-dichloro-4-pyridinyl)-2-oxoethyl)(2,2-dimethylpropyl)carbamoyl)-5-(trifluoromethyl)-1H-pyrazol-1-yl)cyclohexyl)acetic acid], the IC50 was 6.03 nM. Turning to `CC(C)(C)CN(CC(=O)c1c(Cl)cncc1Cl)C(=O)c1cnn([C@H]2CC[C@@H](CC(=O)O)CC2)c1C(F)(F)F` [Example 720, (cis-4-(4-((2-(3,5-dichloro-4-pyridinyl)-2-oxoethyl)(2,2-dimethylpropyl)carbamoyl)-5-(trifluoromethyl)-1H-pyrazol-1-yl)cyclohexyl)acetic acid], the IC50 was 74.1 nM. Take `Cc1cc(Cl)c(C(=O)CN(C(=O)c2cnn([C@H]3CC[C@](C)(C(=O)O)CC3)c2C(F)(F)F)[C@H]2CCC23CCC3)c(Cl)c1` [Example 721, trans-4-(4-((2-(2,6-dichloro-4-methylphenyl)-2-oxoethyl)((1S)-spiro[3.3]hept-1-yl)carbamoyl)-5-(trifluoromethyl)-1H-pyrazol-1-yl)-1-methylcyclohexanecarboxylic acid]: the IC50 was 0.832 nM. As to `Cc1cc(Cl)c(C(=O)CN(C(=O)c2cnn([C@H]3CC[C@](C)(C(=O)O)CC3)c2C(F)(F)F)[C@@H]2CCC23CCC3)c(Cl)c1` [Example 722, trans-4-(4-((2-(2,6-dichloro-4-methylphenyl)-2-oxoethyl)((1R)-spiro[3.3]hept-1-yl)carbamoyl)-5-(trifluoromethyl)-1H-pyrazol-1-yl)-1-methylcyclohexanecarboxylic acid], the IC50 was 9.55 nM. In the case of `Cc1cc(Cl)c(C(=O)CN(C[C@@H]2CC(C)(C)O2)C(=O)c2cnn([C@H]3CC[C@](C)(C(=O)O)CC3)c2C(F)(F)F)c(Cl)c1` [Example 723, trans-4-(4-((2-(2,6-dichloro-4-methylphenyl)-2-oxoethyl)(((2S)-4,4-dimethyl-2-oxetanyl)methyl)carbamoyl)-5-(trifluoromethyl)-1H-pyrazol-1-yl)-1-methylcyclohexanecarboxylic acid], the IC50 is 10 nM. In the case of `Cc1cc(Cl)c(C(=O)CN(C[C@H]2CC(C)(C)O2)C(=O)c2cnn([C@H]3CC[C@](C)(C(=O)O)CC3)c2C(F)(F)F)c(Cl)c1` [Example 724, trans-4-(4-((2-(2,6-dichloro-4-methylphenyl)-2-oxoethyl)(((2R)-4,4-dimethyl-2-oxetanyl)methyl)carbamoyl)-5-(trifluoromethyl)-1H-pyrazol-1-yl)-1-methylcyclohexanecarboxylic acid], the IC50 was 6.03 nM. As to `Cc1cc(Cl)c(C(=O)CN(C[C@@]2(C)CCCO2)C(=O)c2cnn([C@H]3CC[C@](C)(C(=O)O)CC3)c2C(F)(F)F)c(Cl)c1` [Example 725, trans-4-(4-((2-(2,6-dichloro-4-methylphenyl)-2-oxoethyl)(((2S)-2-methyltetrahydro-2-furanyl)methyl)carbamoyl)-5-(trifluoromethyl)-1H-pyrazol-1-yl)-1-methylcyclohexanecarboxylic acid], the IC50 is 4.47 nM. As for `Cc1cc(Cl)c(C(=O)CN(C[C@@]2(C)CCCO2)C(=O)c2cnn([C@H]3CC[C@](C)(C(=O)O)CC3)c2C(F)(F)F)c(Cl)c1` [Example 726, trans-4-(4-((2-(2,6-dichloro-4-methylphenyl)-2-oxoethyl)(((2R)-2-methyltetrahydro-2-furanyl)methyl)carbamoyl)-5-(trifluoromethyl)-1H-pyrazol-1-yl)-1-methylcyclohexanecarboxylic acid], the IC50 was 2.75 nM. In the case of `C[C@@]1(CN(CC(=O)c2c(Cl)cccc2Cl)C(=O)c2cnn([C@H]3CC[C@](C)(C(=O)O)CC3)c2C(F)(F)F)CCCO1` [Example 727, trans-4-(4-((2-(2,6-dichlorophenyl)-2-oxoethyl)(((2S)-2-methyltetrahydro-2-furanyl)methyl)carbamoyl)-5-(trifluoromethyl)-1H-pyrazol-1-yl)-1-methylcyclohexanecarboxylic acid], the IC50 was 11.7 nM. Regarding `C[C@]1(CN(CC(=O)c2c(Cl)cccc2Cl)C(=O)c2cnn([C@H]3CC[C@](C)(C(=O)O)CC3)c2C(F)(F)F)CCCO1` [Example 728, trans-4-(4-((2-(2,6-dichlorophenyl)-2-oxoethyl)(((2R)-2-methyltetrahydro-2-furanyl)methyl)carbamoyl)-5-(trifluoromethyl)-1H-pyrazol-1-yl)-1-methylcyclohexanecarboxylic acid], the IC50 was 4.79 nM. As for `C[C@]1(C(=O)O)CC[C@H](n2ncc(C(=O)N(CC(=O)c3c(Cl)cccc3Cl)CC3(C(F)(F)F)CC3)c2C(F)(F)F)CC1` [Example 729, (1r,4r)-4-(4-((2-(2,6-dichlorophenyl)-2-oxoethyl)((1-(trifluoromethyl)cyclopropyl)methyl)carbamoyl)-5-(trifluoromethyl)-1H-pyrazol-1-yl)-1-methylcyclohexanecarboxylic acid], the figure is 2.4 nM; as for `CC1(CN(CC(=O)c2c(Cl)cncc2Cl)C(=O)c2cnn([C@H]3CC[C@](C)(C(=O)O)CC3)c2C(F)(F)F)CCC1` [Example 730, trans-4-(4-((2-(3,5-dichloro-4-pyridinyl)-2-oxoethyl)((1-methylcyclobutyl)methyl)carbamoyl)-5-(trifluoromethyl)-1H-pyrazol-1-yl)-1-methylcyclohexanecarboxylic acid], 3.55 nM; as for `Cc1cc(Cl)c(C(=O)CN(CC2(C)CCC2)C(=O)c2cnn([C@H]3CC[C@](C)(C(=O)O)CC3)c2C(F)(F)F)c(Cl)c1` [Example 731, trans-4-(4-((2-(2,6-dichloro-4-methylphenyl)-2-oxoethyl)((1-methylcyclobutyl)methyl)carbamoyl)-5-(trifluoromethyl)-1H-pyrazol-1-yl)-1-methylcyclohexanecarboxylic acid], 0.933 nM. Consider `Cc1cc(Cl)c(C(=O)CN(C(=O)c2cnn([C@H]3CC[C@](C)(C(=O)O)CC3)c2C(F)(F)F)C2CCC(C)(C)CC2)c(Cl)n1` [Example 732, trans-4-(4-((2-(2,4-dichloro-6-methyl-3-pyridinyl)-2-oxoethyl)(4,4-dimethylcyclohexyl)carbamoyl)-5-(trifluoromethyl)-1H-pyrazol-1-yl)-1-methylcyclohexanecarboxylic acid], for which the IC50 was 9.12 nM.
